Among the test systems are M14 melanoma; A549 NSCLC; MDA-MB-231 breast; SNB-75 CNS; DU-145 prostate; HCT-116 colon; MOLT-4 leukemia; HS 578T breast; T-47D breast; SF-268 CNS.
Common to all, as to assay: NCI tumour cell line growth inhibition, 48 h

Molecules are shown by their SMILES.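 A five-concentration, 48-hour dose response in 96-well plates underlies each endpoint, interpolated linearly between surrounding concentrations. Here, GI50 denotes the concentration required for 50% inhibition of growth. TGI is the concentration that stops growth completely.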

Regarding `Cn1cc(C2=C(c3ccsc3)C(=O)NC2=O)c2ccccc21`, the GI50 in the assay on M14 melanoma was over 25 µM; with A549 NSCLC, over 25 µM; in the assay on MDA-MB-231 breast, over 25 µM; in the assay with SNB-75 CNS, 1.07 µM; with DU-145 prostate, over 25 µM; in the assay on HCT-116 colon it was over 25 µM. Moreover, the GI50 is over 25 µM in the assay with MOLT-4 leukemia, over 25 µM in the assay with HS 578T breast, 7.97 µM with T-47D breast and over 25 µM with SF-268 CNS. Besides, the TGI in the assay with M14 melanoma, with A549 NSCLC, in the assay with MDA-MB-231 breast, in the assay with SNB-75 CNS, with DU-145 prostate and in the assay on HCT-116 colon was over 25 µM in each case. In addition, the TGI in the assay on MOLT-4 leukemia, in the assay on HS 578T breast, in the assay with T-47D breast and with SF-268 CNS was over 25 µM each time.
In the case of `C=CC1(C)CCC2C(=CCC3C2(C)CC(O)C(O)C3(C)COC2OC(CO)C(O)C(O)C2O)C1` (stereo not given), the TGI with M14 melanoma, with A549 NSCLC, with MDA-MB-231 breast, with SNB-75 CNS, with DU-145 prostate and with HCT-116 colon was over 100 µM throughout. Besides, the TGI in the assay with MOLT-4 leukemia, with HS 578T breast, with T-47D breast and in the assay on SF-268 CNS was over 100 µM in each case.
Regarding `COc1cc(/C=C/C(=O)c2cccc(-n3cc(-c4ccccc4)[nH]c3=O)c2)cc(OC)c1OC`, the GI50 was 1.35 µM with M14 melanoma; 4.03 µM in the assay with A549 NSCLC; 2.17 µM in the assay with MDA-MB-231 breast; 4.47 µM in the assay with SNB-75 CNS; 2.16 µM with DU-145 prostate; 0.332 µM with HCT-116 colon. In addition, the GI50 was 1.8 µM in the assay with MOLT-4 leukemia, 3.41 µM with HS 578T breast, 2.19 µM in the assay on T-47D breast and 1.92 µM in the assay on SF-268 CNS. The TGI in the assay on M14 melanoma was 2.72 µM; in the assay on A549 NSCLC it was over 100 µM; in the assay with MDA-MB-231 breast, 6.18 µM; with SNB-75 CNS, 16.8 µM; with DU-145 prostate it was 7.85 µM; with HCT-116 colon it was 1.2 µM. The TGI in the assay with MOLT-4 leukemia is over 100 µM; in the assay with HS 578T breast it was 27.1 µM; in the assay on T-47D breast it was 6.9 µM; in the assay with SF-268 CNS it was 5.74 µM.
Turning to `O=c1[nH]c2ccccc2n1C1CCNCC1`, the GI50 in the assay with M14 melanoma, with A549 NSCLC, with MDA-MB-231 breast, with SNB-75 CNS, with DU-145 prostate and in the assay with HCT-116 colon was over 100 µM each time. The GI50 in the assay with MOLT-4 leukemia, in the assay with HS 578T breast, in the assay on T-47D breast and with SF-268 CNS was over 100 µM throughout. For the same compound, the TGI in the assay on M14 melanoma, in the assay on A549 NSCLC, in the assay with MDA-MB-231 breast, in the assay with SNB-75 CNS, in the assay on DU-145 prostate and in the assay with HCT-116 colon was over 100 µM in each case. Further, the TGI in the assay with MOLT-4 leukemia, in the assay with HS 578T breast, in the assay on T-47D breast and in the assay on SF-268 CNS was over 100 µM each time.
For the compound `COc1cccc2c1nc(C(F)F)n2-c1nc(-c2ccc(NS(=O)(=O)CCN(C)C)cc2)nc(N2CCOCC2)n1`, the GI50 in the assay with M14 melanoma was 0.243 µM; in the assay with A549 NSCLC, 0.174 µM; in the assay on MDA-MB-231 breast, 0.617 µM; in the assay with SNB-75 CNS, 0.0246 µM; in the assay with DU-145 prostate, 0.162 µM; in the assay with HCT-116 colon, 0.456 µM. Moreover, the GI50 is 0.123 µM with MOLT-4 leukemia, 0.0664 µM in the assay on HS 578T breast, 0.0177 µM in the assay with T-47D breast and 0.157 µM in the assay on SF-268 CNS. The TGI was over 100 µM in the assay with M14 melanoma; 4.33 µM in the assay with A549 NSCLC; 37.2 µM with MDA-MB-231 breast; 0.282 µM with SNB-75 CNS; 11.7 µM in the assay on DU-145 prostate; 2.98 µM with HCT-116 colon. The TGI is 3.71 µM with MOLT-4 leukemia, 0.5 µM in the assay on HS 578T breast, 0.0882 µM with T-47D breast and 13.3 µM in the assay with SF-268 CNS.
Turning to `C=CCc1cccc(C=O)c1O`, the GI50 in the assay on M14 melanoma was 39.2 µM; in the assay on A549 NSCLC, over 100 µM; in the assay with MDA-MB-231 breast it was 19.1 µM; in the assay with SNB-75 CNS, 10.6 µM; in the assay with DU-145 prostate it was over 100 µM; with HCT-116 colon, 4.07 µM. Also, the GI50 in the assay on MOLT-4 leukemia was 15.5 µM; with HS 578T breast it was over 100 µM; in the assay with T-47D breast, 10.2 µM; in the assay on SF-268 CNS, 25.2 µM. The TGI in the assay on M14 melanoma, with A549 NSCLC, in the assay with MDA-MB-231 breast, in the assay on SNB-75 CNS, in the assay on DU-145 prostate and in the assay with HCT-116 colon was over 100 µM each time. Moreover, the TGI in the assay on MOLT-4 leukemia is 55.1 µM; with HS 578T breast, over 100 µM; with T-47D breast it was over 100 µM; in the assay on SF-268 CNS, over 100 µM.
